Assays:
[1] = test system: mouse embryonic cells (MEC); assay type: cell-based
Procedure: Electron paramagnetic resonance (“EPR”) spectroscopy was used to monitor the cellular delivery of compounds 5a and 5b shown in FIG. 2 in mouse embryonic cells (“MEC”).
The following conditions were used during the EPR-based analysis of the integration and reduction of nitroxide Gramicidin S-peptidyl conjugates in MECs. The MECs at a concentration of 10 million MECs per mL were incubated with 10 μM of 4-AT and compound 5a, respectively. Recovered nitroxide radicals in whole cells, mitochondria, and cytosol fractions were resuspended in phosphate buffer saline (“PBS”) in the presence and absence, respectively, of 2 μM K3Fe(CN)6.

[2] = test system: rat ileal mucosal permeability; assay: Intestinal mucosal permeability assay (FD4 clearance, everted gut sacs) after pressure-controlled hemorrhagic shock; assay type: in vivo; conditions: intraluminal
Procedure: Intestinal mucosal permeability assay. Animals were allowed access to water but not food for 24 h prior to the experiment in order to decrease the volume of intestinal contents. The rats were instrumented as described above.
A midline laparotomy was performed and the small intestine was exteriorized from the duodenojejunal junction to the ileocecal valve. A small incision was made on the antimesenteric aspect of the proximal small intestine and saline solution (1.5 ml) was injected. The bowel was ligated proximally and distally to the incision with 4-0 silk (LOOK, Reading, Pa.).
The small intestine was compressed gently in aboral direction along its length to displace intestinal contents into the colon. Starting 5 cm from the ileocecal valve, the ileum was partitioned into six contiguous water-tight segments. Each segment was 3 cm long and was bounded proximally and distally by constricting circumferential 4-0 silk sutures. Care was taken to ensure that the vascular supply to intestine was not compromised, and each segment was well-perfused.
Two randomly selected segments in each rat were injected with 0.3 ml of vehicle and served as “no treatment” controls. In order to fill the segments, a small incision was made and the solution was injected using a Teflon catheter (ABBOCATH 16Ga, ABBOTT LABORATORIES).
The remaining four other segments were injected with solutions containing either 4-hydroxy-2,2,6,6-tetramethylpiperidine-N-oxyl (TEMPOL) or one of the Gramicidin S-based compounds. Four different final concentrations of TEMPOL in normal saline were evaluated: 0.1, 1, 5 and 20 mM. The hemigramicidin-based compounds were dissolved in a mixture of dimethylsulfoxide (DMSO) and normal saline (1:99 v/v) and injected at final concentrations of 0.1, 1, 10 or 100 μM.
After the segments were loaded with saline or the test compounds, the bowel was replaced inside the peritoneal cavity and the abdominal incision was temporarily closed using Backhaus forceps.
After a 5 min stabilization period, hemorrhagic shock was induced by withdrawing blood via the jugular catheter. MAP was maintained at 30±3 mm Hg for 2 hours. The shed blood was re-infused as needed to maintain MAP within the desired range.
After 2 h of shock, the animals were euthanized with an intracardiac KCl bolus injection. The ileum was rapidly excised from the ileocecal valve to the most proximal gut segment. The tips of each segment were discarded. In order to assay caspases 3 and 7 activity and phospholipids peroxidation, mucosa samples were collected from gut segments immediately after hemorrhage and stored at −80° C. For permeability measurements, each segment was converted into an everted gut sac, as previously described by Wattanasirichaigoon et al., see Wattanasirichaigoon, S. et al., Effect of mesenteric ischemia and reperfusion or hemorrhagic shock on intestinal mucosal permeability and ATP content in rats, SHOCK, 12:127-133 (1999).
Briefly, as per the Wattanasirichaigoon protocol referenced above, the sacs were prepared in ice-cold modified Krebs-Henseleit bicarbonate buffer (“KHBB”), pH 7.4. One end of the gut segment was ligated with a 4-0 silk suture; the segment was then everted onto a thin plastic rod. The resulting gut sac was mounted on a Teflon catheter (Abbocath 16GA, Abbot Laboratories) connected to a 3 ml plastic syringe containing 1.5 ml of KHBB. The sac was suspended in a beaker containing KHBB plus fluorescein-isothiocyanate labeled dextran (average molecular mass 4 kDa; FD4; 0.1 mg/ml). This solution was maintained at 37° C., and oxygenated by bubbling with a gas mixture (O2 95%/CO2 5%). After 30 min, the fluid within the gut sac was collected. The samples were cleared by centrifugation at 2000 g for 5 min.
Fluorescence of FD4 in the solution inside the beaker and within each gut sac was measured using a fluorescence spectrophotometer (LS-50, PERKIN-ELMER, Palo Alto, Calif.) at an excitation wavelength of 492 nm and an emission wavelength of 515 nm. […]

For `CC(C)C[C@@H](/C=C/[C@H](Cc1ccccc1)C(=O)N1CCC[C@H]1C(=O)N[C@H](C(=O)N[C@@H](CCCNC(=O)OCc1ccccc1)C(=O)NC1CC(C)(C)N([O])C(C)(C)C1)C(C)C)NC(=O)OC(C)(C)C` [XJB-5-131], the “EPR triplet signals of nitroxide radicals in MECs and in mitochondria isolated from these cells” value ([1]; 10 μM, no EPR signal in the cytosolic fraction) was “Distinctive characteristic triplet signals of nitroxide radicals were detected”, the “integration and one-electron reduction in MECs (EPR signal increase upon ferricyanide)” value ([1]; 10 μM, with and without K3Fe(CN)6) was “resulted in integration and one-electron reduction” and the “concentration in the mitochondria of cultured mouse embryonic cells” value ([1]; after incubation with solutions of the compounds) was “concentrated in the mitochondria”. For the same compound, the “lowest effective concentration against ileal mucosal hyperpermeability” value [2] was 1 µM, the “protection against hemorrhagic shock-induced ileal mucosal hyperpermeability” value ([2]; 0.1-100 μM, 2 h shock) was “significantly ameliorated” and the “potency relative to TEMPOL” value ([2]; gut mucosal protection) was ~1000 fold. The “hemorrhagic shock-induced mucosal hyperpermeability relative to control value” ([2]; control segments loaded with vehicle) was “approximately 60%”.
